Broadly, the inhibition in vivo is the drop in the measured response relative to a control, in per cent. What is called IC50 is the concentration that inhibits the measured activity by half.

Active and inactive are the calls of the source. No cut-off for these calls is given here.

Data on eight molecules can be found in ChEMBL document CHEMBL4665856, “Design and synthesis of new disubstituted benzoxazolone derivatives that act as iNOS inhibitors with potent anti-inflammatory activity against LPS-induced acute lung injury (ALI)” (Bioorg Med Chem, 2020).

Data set [1] has as its system Mus musculus. Kind of data set: Anti-inflammatory activity in Kunming mouse assessed as inhibition of xylene-induced ear edema at 12.5 mg/kg, po dosed 1 hr prior to xylene challenge and measured at 30 mins post xylene injection relative to control. Type of data set: functional. Conditions: 1.5 h, time 90 min.
Data set [2] concerns RAW264.7. Kind of data set: Antiinflammatory activity in mouse RAW264.7 cells assessed as reduction in LPS-induced TNF-alpha production at 12.5 uM measured after 24 hrs by ELISA. In kind it is functional, cell-based. On the technique in general: In an ELISA, binding on a coated surface is turned into a signal by an enzyme label.
Data set [3] has as its system RAW264.7. Kind of data set: Antiinflammatory activity in mouse RAW264.7 cells assessed as reduction in LPS-induced IL-1 beta production at 12.5 uM measured after 24 hrs by ELISA. In kind it is functional, cell-based.
Data set [4] relates to RAW264.7. Kind of data set: Antiinflammatory activity in mouse RAW264.7 cells assessed as reduction in LPS-induced IL-6 production at 12.5 uM measured after 24 hrs by ELISA. In kind it is functional, cell-based.
The subject of data set [5] is RAW264.7. Kind of data set: Cytotoxicity against mouse RAW 264.7 cells assessed as reduction in cell proliferation at 25 uM by MTT assay. Type of data set: cell-based. The note with it: raw264.7, 25 µM. (Tetrazolium dyes change colour on reduction, which living cells bring about.)
The target of data set [6] is T1, Nitric oxide synthase, inducible (Mus musculus, UniProt P29477).
T1 sequence (P29477 whole entry): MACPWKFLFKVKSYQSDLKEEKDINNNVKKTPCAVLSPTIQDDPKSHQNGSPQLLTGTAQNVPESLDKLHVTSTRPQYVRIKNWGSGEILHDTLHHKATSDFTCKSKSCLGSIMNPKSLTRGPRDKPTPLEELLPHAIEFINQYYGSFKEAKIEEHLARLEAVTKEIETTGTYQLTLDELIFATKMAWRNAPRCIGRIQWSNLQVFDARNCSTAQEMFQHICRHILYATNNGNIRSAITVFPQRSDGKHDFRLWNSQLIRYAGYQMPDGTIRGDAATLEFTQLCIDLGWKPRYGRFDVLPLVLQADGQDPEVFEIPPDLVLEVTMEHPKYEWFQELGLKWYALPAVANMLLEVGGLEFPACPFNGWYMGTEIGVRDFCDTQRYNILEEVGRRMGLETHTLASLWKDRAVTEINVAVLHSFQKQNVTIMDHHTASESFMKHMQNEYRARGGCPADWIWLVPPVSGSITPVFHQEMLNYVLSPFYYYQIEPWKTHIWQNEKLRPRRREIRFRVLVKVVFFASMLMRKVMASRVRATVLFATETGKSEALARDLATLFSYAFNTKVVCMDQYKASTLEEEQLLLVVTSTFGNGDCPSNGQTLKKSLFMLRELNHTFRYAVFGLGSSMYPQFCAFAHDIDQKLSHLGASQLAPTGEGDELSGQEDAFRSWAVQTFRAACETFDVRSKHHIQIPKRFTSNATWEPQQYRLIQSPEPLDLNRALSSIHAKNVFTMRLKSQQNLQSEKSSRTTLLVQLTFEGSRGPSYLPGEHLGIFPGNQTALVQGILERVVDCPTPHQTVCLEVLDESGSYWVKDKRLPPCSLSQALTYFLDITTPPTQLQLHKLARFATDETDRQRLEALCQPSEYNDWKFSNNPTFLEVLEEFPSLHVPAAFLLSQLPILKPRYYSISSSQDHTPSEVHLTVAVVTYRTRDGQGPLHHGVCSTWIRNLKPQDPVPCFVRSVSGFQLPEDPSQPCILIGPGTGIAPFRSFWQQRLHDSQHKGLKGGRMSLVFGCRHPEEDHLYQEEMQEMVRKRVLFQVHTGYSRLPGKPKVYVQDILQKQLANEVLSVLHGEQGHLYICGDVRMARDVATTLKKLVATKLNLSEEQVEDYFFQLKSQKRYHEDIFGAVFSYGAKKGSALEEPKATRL
Kind of data set: Inhibition of iNOS in mouse RAW264.7 cells assessed as inhibition of LPS-induced nitric oxide overproduction incubated for 24 hrs by Griess assay. In kind it is cell-based.

For data set [7], the system named is RAW264.7. Kind of data set: Anti-inflammatory activity in mouse RAW264.7 cells assessed as inhibition of LPS-induced nitric oxide synthase production measured after 24 hrs by ELISA. In kind it is functional, cell-based. Conditions: RAW264.7, 24 h.
Data set [8] deals with Mus musculus. Kind of data set: Anti-inflammatory activity against LPS-induced ALI Kunming mouse model assessed as reduction in lung edema by measuring reduction in lung wet-to-dry ratio at 3.125 to 12.5 mg/kg, po administered 4 hrs prior to LPS instillation and measured at 12 hrs post-LPS instillation. Type of data set: functional, organism-based. Conditions: dose mg/kg 3.125-12.5, time 16.0 hrs.

Data set [9] has as its system Mus musculus. Kind of data set: Anti-inflammatory activity against LPS-induced ALI Kunming mouse model assessed as reduction in TNF-alpha level in serum at 3.125 to 12.5 mg/kg, po administered 4 hrs prior to LPS instillation and measured at 12 hrs post-LPS instillation by ELISA. The note with it: dose mg/kg 3.125-12.5, time 16.0 hrs. In kind it is functional, organism-based.

Data set [10] has as its system Mus musculus. Kind of data set: Anti-inflammatory activity against LPS-induced ALI Kunming mouse model assessed as reduction in neutrophil infiltration in lungs by measuring decrease in MPO activity at 3.125 to 12.5 mg/kg, po administered 4 hrs prior to LPS instillation and measured at 12 hrs post-LPS instillation. The note with it: dose mg/kg 3.125-12.5, time 16.0 hrs. Type of data set: functional, organism-based.

In data set [11] the test system is Mus musculus. Kind of data set: Anti-inflammatory activity against LPS-induced ALI Kunming mouse model assessed as reduction in iNOS level in serum at 3.125 to 12.5 mg/kg, po administered 4 hrs prior to LPS instillation and measured at 12 hrs post-LPS instillation by ELISA. In kind it is functional, organism-based. The note with it: dose mg/kg 3.125-12.5, time 16.0 hrs.

Data set [12] relates to Mus musculus. Kind of data set: Anti-inflammatory activity against LPS-induced ALI Kunming mouse model assessed as reduction in IL-1 beta level in serum at 3.125 to 12.5 mg/kg, po administered 4 hrs prior to LPS instillation and measured at 12 hrs post-LPS instillation by ELISA. In kind it is functional, organism-based. The note with it: dose mg/kg 3.125-12.5, time 16.0 hrs.

Data set [13] has as its system RAW264.7. Kind of data set: Anti-inflammatory activity in mouse RAW264.7 cells assessed as reduction in LPS-induced iNOS mRNA expression at 12.5 uM by RT-PCR analysis. In kind it is functional, cell-based.
The subject of data set [14] is Mus musculus. Kind of data set: Anti-inflammatory activity against LPS-induced ALI Kunming mouse model assessed as reduction in IL-6 level in serum at 3.125 to 12.5 mg/kg, po administered 4 hrs prior to LPS instillation and measured at 12 hrs post-LPS instillation by ELISA. The note with it: dose mg/kg 3.125-12.5, time 16.0 hrs. In kind it is functional, organism-based.

The test system of data set [15] is Mus musculus. Kind of data set: Anti-inflammatory activity against LPS-induced ALI Kunming mouse model assessed as reduction in inflammatory infiltration in lungs and pulmonary congestion at 3.125 to 12.5 mg/kg, po administered 4 hrs prior to LPS instillation and measured at 12 hrs post-LPS instillation by hematoxylin-eosin staining based analysis. Type of data set: functional, organism-based. Conditions: dose mg/kg 3.125-12.5, time 16.0 hrs.

The test system of data set [16] is Mus musculus. Kind of data set: Anti-inflammatory activity against LPS-induced ALI Kunming mouse model assessed as reduction in iNOS expression in lung at 3.125 to 12.5 mg/kg, po administered 4 hrs prior to LPS instillation and measured at 12 hrs post-LPS instillation by immunohistochemistry. Type of data set: functional, organism-based. The note with it: dose mg/kg 3.125-12.5, time 16.0 hrs.

The species entered for data set [17] is Mus musculus. Conditions: Kunming, dose 12.5 mg/kg, time 90.0 min.

In the case of `Cn1cnc(S(=O)(=O)Oc2cccc3oc(=O)n(Cc4ccccc4)c23)c1`, the inhibition in vivo at 12.5 mg/kg in the data set with Mus musculus [1] is above 50%. Besides, the result with RAW264.7 [2], in the data set on RAW264.7 [3] and in the data set with RAW264.7 [4] was Active. In the data set on RAW264.7 [5], the Activity entry is “Non-Toxic”.
In the case of `Cc1ccccc1S(=O)(=O)Oc1cccc2oc(=O)n(CCc3ccccc3)c12`, the Activity result with RAW264.7 [5] was “Non-Toxic”.
`Cn1cnc(S(=O)(=O)Oc2cccc3oc(=O)n(Cc4ccc([N+](=O)[O-])cc4)c23)c1`: in the data set with RAW264.7 [5], the Activity entry is “Non-Toxic”.
Turning to `Cn1cnc(S(=O)(=O)Oc2cccc3oc(=O)n(CCc4ccccc4)c23)c1`, in the data set on Mus musculus [1], the inhibition in vivo at 12.5 mg/kg was above 50%. In addition, the IC50 in [6] amounted to 13.4 µM; with RAW264.7 [7] it was 9.73 µM. The outcome with RAW264.7 [2], with RAW264.7 [3] and in the data set on RAW264.7 [4] was Active. In the data set on RAW264.7 [5], the Activity entry was “Non-Toxic”.
`CN(C)c1cccc2c(S(=O)(=O)Oc3cccc4oc(=O)n(CCc5ccccc5)c34)cccc12`: the Activity result with Mus musculus [8], in the data set with Mus musculus [9], in the data set on Mus musculus [10], in the data set on Mus musculus [11], with Mus musculus [12] and with Mus musculus [14] was “Dose-dependent effect” in each case. Moreover, the Activity entry was “Dose-dependent effect” in the data set with Mus musculus [15], “Non-Toxic” in the data set with RAW264.7 [5] and “Dose-dependent effect” with Mus musculus [16]. For the same molecule, in the data set with Mus musculus [1], the inhibition in vivo at 12.5 mg/kg was above 50%. In addition, the IC50 turned out to be 14.7 µM in [6] and 3.34 µM in the data set with RAW264.7 [7]. In addition, the outcome in the data set on RAW264.7 [13], with RAW264.7 [2], with RAW264.7 [3] and in the data set with RAW264.7 [4] was Active.
In the case of `N=C(NCCC[C@H](N)C(=O)O)N[N+](=O)[O-]` [NITROARGININE], the inhibition result in the data set filed under Mus musculus [17] was “Active”. Moreover, the IC50 in [6] stood at 27.6 µM; in the data set with RAW264.7 [7] it was 2.92 µM.
On to `Cc1ccc(Cn2c(=O)oc3cccc(OS(=O)(=O)c4cn(C)cn4)c32)cc1`, for which the Activity entry in the data set with RAW264.7 [5] was “Non-Toxic”.
Take `CN(C)c1cccc2c(S(=O)(=O)Oc3cccc4oc(=O)n(Cc5ccccc5)c34)cccc12`: the inhibition in vivo at 12.5 mg/kg with Mus musculus [1] is above 50%. Also, the IC50 is 16.4 µM in [6] and 4.61 µM in the data set on RAW264.7 [7]. The outcome with RAW264.7 [2], with RAW264.7 [3] and in the data set with RAW264.7 [4] was Active. Moreover, the Activity result in the data set on RAW264.7 [5] is “Non-Toxic”.
